The values that follow come from PubChem BioAssay (NCI).

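The compound was tested at five concentrations on cells cultured in 96-well plates, with a 48-hour exposure period. Abbreviation: GI50, concentration required for 50% inhibition of growth. TGI marks complete inhibition of growth.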

Holding throughout (assay): growth of human tumour cells (NCI), 48 h
Test [1] concerns CAKI-1 renal.
Test [2] has as its system COLO 205 colon.
The subject of test [3] is HOP-62 NSCLC.
Test [4] has as its system OVCAR-4 ovarian.
The test system of test [5] is RPMI-8226 leukemia.
In test [6] the test system is RXF 393 renal.
Test [7] concerns SK-MEL-28 melanoma.
For test [8], the system named is SNB-19 CNS.
The test system of test [9] is SW-620 colon.
Test [10] concerns MDA-MB-231 breast.

As for `CCOP1(=O)C=C(C)C(=C(Cl)Cl)C(C)=C1` (stereo not drawn), the TGI was found to be 49.3 µM in test [1]; 29 µM in test [2]; 40.6 µM in [3]; 29.1 µM in test [4]; 28.4 µM in test [5]; 30.7 µM in [6]. For the same compound, the TGI was > 100 µM in [7], 50.3 µM in test [8] and 30.7 µM in [9].

`COC[C@H](C)N=CN1CCc2ccccc2C1(Cc1ccccc1)Cc1ccccc1`: the TGI is 44.3 µM in test [1]; 34.6 µM in test [2]; 95.4 µM in test [3]; 35.6 µM in test [4]; 38.9 µM in test [5]; 32.7 µM in test [6]. In addition, the TGI in test [7] turned out to be 23.6 µM; in test [8], 32.5 µM; in [9], 63.1 µM.

As to `Nc1c(F)cc(-c2nc3cc(F)ccc3[se]2)cc1Br`, the GI50 was 0.0536 µM in test [2]; 1.83 µM in [3]; 0.306 µM in test [10]; 0.15 µM in test [4]; 2.28 µM in [6]; > 100 µM in [7]. In addition, the GI50 was 27.8 µM in [8] and > 54.5 µM in [9]. Moreover, the TGI was > 100 µM in test [2]; > 100 µM in test [3]; 7.79 µM in test [10]; > 100 µM in [4]; > 100 µM in [5]; 42.8 µM in test [6]. Besides, the TGI in test [7], in test [8] and in [9] was > 100 µM throughout.

For `CCCCCCCC(=O)[O][Hg][CH2]C1COC([CH2][Hg][O]C(=O)CCCCCCC)CO1` (stereo not drawn), the GI50 in [2] was 3.72 µM; in test [3] it was 17.2 µM; in [10] it was 20.7 µM; in test [5], 3.84 µM; in test [6], 18.5 µM; in test [7] it was 14 µM. For the same compound, the GI50 in test [8] was 16.1 µM; in [9] it was 2.91 µM. For the same compound, the TGI in test [2] is 14.6 µM; in test [3], 30.9 µM; in test [10], 50.8 µM; in test [5], > 100 µM; in test [6] it was 32.5 µM; in test [7], 27 µM. The TGI in test [8] worked out at 29.5 µM; in test [9], 19.5 µM.

Turning to `[O-]c1c2c(nn1-c1ccc(Cl)cc1)c1ccccc1c[n+]2Cc1ccccc1`, the TGI is > 100 µM in test [1]; > 100 µM in test [2]; > 100 µM in test [3]; > 100 µM in test [4]; > 100 µM in test [5]; 79.5 µM in [6]. The TGI in test [7], in test [8] and in [9] was > 100 µM each time.

On to `COC(=O)C1C=CCON2CCc3c(n(S(=O)(=O)c4ccccc4)c4ccccc34)C12` (stereo not drawn), for which the TGI was 98.7 µM in test [1]; > 68.9 µM in [2]; > 55.5 µM in [3]; > 31.6 µM in [4]; > 36 µM in test [5]; > 100 µM in [6]. For the same compound, the TGI was > 100 µM in [7], > 77.7 µM in test [8] and > 34.3 µM in [9].

For `COc1cccc(NC(=O)C(=O)C2C=CCS2(=O)=O)c1` (stereo not drawn), the TGI in [1], in test [2], in test [3], in test [4], in test [5] and in test [6] was > 100 µM in each case. Besides, the TGI in test [7], in test [8] and in test [9] was > 100 µM each time.

Take `CCc1cccc(C)c1NC(=S)NC(=O)c1ccccc1C(=O)NC(=S)Nc1c(C)cccc1CC`: the TGI in test [1], in test [2], in test [3], in [4], in [5] and in test [6] was > 100 µM throughout. For the same compound, the TGI in test [7], in test [8] and in test [9] was > 100 µM each time.

Regarding `COc1ccc(-c2cc(=O)c3c(O)cc(O)cc3o2)c(OC)c1OC`, the TGI in [1], in test [2], in test [3], in test [4], in test [5] and in [6] was > 100 µM each time. For the same compound, the TGI in test [7], in [8] and in [9] was > 100 µM each time.

As to `COc1cc(/C=C2\C[C@H]3[C@@H]4CC=C5C[C@@H](OC(C)=O)CC[C@]5(C)[C@H]4CC[C@]3(C)[C@H]2OC(C)=O)ccc1OCCN1CCCC1`, the GI50 in test [1] was 12 µM; in [2] it was 13.3 µM; in test [3], 9.43 µM; in [10], 9.01 µM; in test [5], 1.07 µM; in test [6], 14.6 µM. For the same compound, the GI50 in [7] is 12.8 µM; in test [8], 10.9 µM. The TGI is 25.6 µM in test [1]; > 50 µM in test [2]; 20.5 µM in test [3]; 17 µM in test [10]; 13.4 µM in [5]; 30.8 µM in [6]. Further, the figures for the TGI in [7] and in test [8] were > 50 µM and 22.5 µM, respectively.

Turning to `C=CCN(N=O)C(=O)NCCCCC(NC(C)=O)C(=O)NCc1ccccc1` (stereo not drawn), the TGI in test [1], in test [2], in [3], in test [4], in test [5] and in test [6] was > 100 µM in each case. In addition, the TGI in test [7], in test [8] and in [9] was > 100 µM each time.

On to `C=C1Cc2cc(OC)c(OC)c(OC)c2-c2ccc(SC)c(=O)cc21`, for which the TGI in [1] is 6.01 µM; in [2], < 0.0318 µM; in test [3], 7.8 µM; in test [4], 18.9 µM; in [5], 14.7 µM; in test [6], 10.4 µM. In addition, the TGI in [7] stood at 7.88 µM; in [8] it was 5.3 µM; in test [9] it was 4 µM.

With `CCN=C(C#N)NCC`, the TGI in [1], in test [2], in test [3], in [4], in test [5] and in test [7] was > 100 µM each time. For the same compound, the results for the TGI in [8] and in [9] were > 100 µM and 37.5 µM, respectively.
